Columns and labels:
OSGPR114 [1] = molecular target: T1, OSGPR114 (Homo sapiens, UniProt Q9H1C0); test: Yeast Fus1p-LacZ β-galactosidase reporter assay, OSGPR114-transformed yeast; format: cell-based; conditions: for effect on fluorescence (β-galactosidase reporter): yeast transformed with OSGPR114
T1 construct: expressed in transfected cells; host or cells: engineered yeast (GPA1 replaced by G-alpha chimeras, STE3 deleted; Fus1p-LacZ reporters)
Excerpt: (§1) The yeast cell-based reporter assays have previously been described in the literature (e.g. see Miret J. J., et. al. (2002) J. Biol. Chem. 277:6881-6887; Campbell R. M., et. al. (1999) Bioorg Med. Chem. Lett. 9:2413-2418; King K., et. al. (1990) Science. 250:121-123); WO 99/14344; WO 00/12704; and U.S. Pat. No. 6,100,042). Briefly, yeast cells have been engineered such that the endogenous yeast G-alpha (GPA1) has been deleted and replaced with G-protein chimeras constructed using multiple techniques. Additionally the endogenous yeast alpha-cell GPCR, STE3 has been deleted to allow for a […] expression of a mammalian GPCR of choice. In the yeast, elements of the pheromone signaling transduction pathway, which are conserved in eukaryotic cells (for example, the mitogen-activated protein kinase pathway), drive the expression of Fus1. By placing β-galactosidase (LacZ) under the control of the Fus1 promoter (Fus1p), a system has been developed whereby receptor activation leads to an enzymatic read-out. Different yeast strains (e.g. FIG. 6) denote the presence of different G-alpha chimeras (see “yeast reporter assays” in Results section below for definitions).
(§2) Yeast cells are transformed by an adaptation of the Lithium acetate method described by Agatep et.al. (Agatep, R., et. al. (1998) Transformation of Saccharomyces cerevisiae by the lithium acetate/single-stranded carrier DNA/polyethylene glycol (LiAc/ss-DNA/PEG) protocol. Technical Tips Online, Trends Journals, Elsevier). Briefly, yeast cells are grown overnight on yeast tryptone plates (YT). Carrier single-stranded DNA (10 μg), 2 μg of each of two Fus1p-LacZ reporter plasmids (one with URA3 selection marker and one with TRP1), 2 μg of OSGPR114 or OSGPR78 in yeast expression vector (2p origin of replication) and a lithium acetate/polyethylene glycol/TE buffer is pipetted into an Epindorf tube. The yeast expression plasmid containing the receptor/no receptor control has a LEU2 marker. Yeast cells are inoculated into this mixture and the reaction proceeds at 30° C. for 60 minutes. The yeast cells are then heat-shocked at 42° C. for 15 minutes. The cells are then washed and spread on selection plates. The selection plates are synthetic defined yeast media minus LEU, URA and TRP (SD-LUT). After incubating at 30° C. for 2-3 days, colonies that grow on the selection plates are then tested in the LacZ assay.
(§3) In order to perform fluorometric enzyme assays for β-galactosidase, yeast cells were grown overnight in liquid SD-LUT media to an unsaturated concentration (i.e. the cells are still dividing and have not yet reached stationary phase). They are diluted in fresh media to an optimal assay concentration and 90 μL of yeast cells were added to 96-well black polystyrene plates (Costar). Compounds, dissolved in ethanol and diluted in a 1% BSA solution to 10× concentration, were added to the plates and the yeast are placed at 30° C. for 4 h. After 4 h, the substrate for the β-galactosidase is added to each well: The substrate may yield a fluorescent or calorimetric read-out upon the activity of the β-galactosidase. In these experiments, Fluorescein di(β-D-galactopyranoside) was used (FDG), a substrate for the enzyme that releases fluorescein, allowing a fluorometric read-out. 20 μL of 500 μM FDG was used. After incubation of the cells with the substrate for 30-60 mins, 20 μL of 1 M sodium carbonate is added to terminate the reaction and enhance the fluorescent signal. The plates were then read in a fluorometer at 485/535 nm. As an alternate read-out system, the yeast are also engineered with a Fus1p-HIS gene which means that activation of the receptor can also be measured through the growth of the yeast in a […] media.

OSGPR78 = molecular target: T2, OSGPR78 (Homo sapiens, UniProt P43657, I33V); test: Yeast Fus1p-LacZ β-galactosidase reporter assay, OSGPR78-transformed yeast; format: cell-based; conditions: yeast transformed with OSGPR78
T2 construct: expressed in transfected cells; host or cells: engineered yeast (GPA1 replaced by G-alpha chimeras, STE3 deleted; Fus1p-LacZ reporters)
T2 sequence (P43657 1-344 I33V): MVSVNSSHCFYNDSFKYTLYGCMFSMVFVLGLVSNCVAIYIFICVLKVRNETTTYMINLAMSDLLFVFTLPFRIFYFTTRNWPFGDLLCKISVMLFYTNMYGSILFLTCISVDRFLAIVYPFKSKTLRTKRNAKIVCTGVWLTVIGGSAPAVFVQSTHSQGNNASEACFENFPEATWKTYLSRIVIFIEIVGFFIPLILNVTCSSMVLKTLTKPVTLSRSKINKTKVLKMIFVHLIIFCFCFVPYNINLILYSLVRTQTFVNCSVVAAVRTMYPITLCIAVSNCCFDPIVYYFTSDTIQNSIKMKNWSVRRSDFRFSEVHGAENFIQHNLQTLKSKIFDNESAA
Excerpt: as §1, §2, §3

[2] = tested on: vector transformed yeast cells; test: Yeast Fus1p-LacZ reporter assay, vector control (no receptor); format: cell-based; conditions: vector controls, same yeast strains
Excerpt: as §1, §2
as §3, with “Compounds, dissolved in ethanol and diluted in a 1% BSA solution to 10× concentration, were added to the plates and the yeast are placed at 30° C. for 4 h.” left out, “20 μL of 500 μM FDG was used. After incubation of the cells with the substrate for 30-60 mins, 20 μL of 1 M sodium carbonate is added to terminate the reaction and enhance the fluorescent signal.” left out

OSGPR114 [3] = molecular target: T1, OSGPR114; test: FLIPR intracellular calcium assay, CHO-OSGPR114 cells; format: cell-based; conditions: co-addition with LPA
Experimental: For example, in one method employed herein, CHO and CHO-114 cells were seeded at a concentration of 50K cells/well in […] growth media in clear, flat-bottom 96-well black assay plates and incubated overnight at 37 C. The growth media is aspirated from the cells and a dye solution ([…]) added to each well. The dye solution consists of 2 mM probenecid, 2 mM HBSS, […] in a growth media minus antibiotics solution. The cells are loaded with the dye for 1 h at 37 C before aspiration and rinsing with wash buffer (20 mM HBSS+2 mM Probenecid). Compound plates are then prepared with 4× compound/control. 150 ul of wash buffer is added to each well. Once the FLIPR is fully calibrated, compound is added to the plate and the release of calcium measured using 0.4 exposure length and a laser set at 0.3W.

OSGPR114 [4] = molecular target: T1, OSGPR114; test: [35S]-GTPγS binding, CHO-OSGPR114 membranes; format: biochemical; conditions: CHO-OSGPR114 versus CHO membranes
Experimental: For example, in one method employed herein, membranes from untransfected CHO cells as well as OSGPR114 stable clones were prepared using the method described by Griffin et al (1998). Membranes were homogenized in buffer containing 50 mM Tris, 3 mM MgCl2, 100 mM NaCl, 1 mM EDTA, 1 uM GDP, 0.1% fatty acid free BSA, 0.01% Saponin, pH 7.4. Assays were carried out in a reaction mixture containing 50 mL of membrane suspension (5 mg/well), 50 mL of [^35S]-GTPgS binding (final concentration 0.5 nM: 50 mL aliquot counted to determine precise concentration employed) and either 50 mL of assay buffer, 50 mL of unlabeled GTPgS (defining nonspecific binding:final concentration is 10 mM) or 50 mL of each concentration of LPA. Incubations were carried out in triplicate for 60 minutes at 37° C. Reactions were terminated by rapid filtration over GF/B filters presoaked in ice cold wash buffer for 90 minutes. The filters were then washed 6 times with 0.3 mL of ice cold wash buffer (50 mM Tris, 5 mM MgCl2, pH 7.4). The filters were dried, covered with Microscint-20, dark adapted for 5 minutes, and counted on a 2 minute [^35S] protocol on a Packard TopCount LSC.

endogenous CHO receptor = test: [35S]-GTPγS binding, parental CHO membranes; format: biochemical, hamster; conditions: 1 nM to 300 nM applied
Experimental: For example, in one method employed herein, membranes from untransfected CHO cells as well as OSGPR114 stable clones were prepared using the method described by Griffin et al (1998). Membranes were homogenized in buffer containing 50 mM Tris, 3 mM MgCl2, 100 mM NaCl, 1 mM EDTA, 1 uM GDP, 0.1% fatty acid free BSA, 0.01% Saponin, pH 7.4. Assays were carried out in a reaction mixture containing […], 50 mL of [^35S]-GTPgS binding (final concentration 0.5 nM: 50 mL aliquot counted to determine precise concentration employed) and either 50 mL of assay buffer, 50 mL of unlabeled GTPgS (defining nonspecific binding:final concentration is […]) or 50 mL of each concentration of LPA. Incubations were carried out in triplicate for 60 minutes at 37° C. Reactions were terminated by rapid filtration over GF/B filters presoaked in ice cold wash buffer for 90 minutes. The filters were then washed 6 times with 0.3 mL of ice cold wash buffer (50 mM Tris, 5 mM MgCl2, pH 7.4). The filters were dried, covered with Microscint-20, dark adapted for 5 minutes, and counted on a 2 minute [^35S] protocol on a Packard TopCount LSC.

T1 sequence (Q9H1C0 whole entry): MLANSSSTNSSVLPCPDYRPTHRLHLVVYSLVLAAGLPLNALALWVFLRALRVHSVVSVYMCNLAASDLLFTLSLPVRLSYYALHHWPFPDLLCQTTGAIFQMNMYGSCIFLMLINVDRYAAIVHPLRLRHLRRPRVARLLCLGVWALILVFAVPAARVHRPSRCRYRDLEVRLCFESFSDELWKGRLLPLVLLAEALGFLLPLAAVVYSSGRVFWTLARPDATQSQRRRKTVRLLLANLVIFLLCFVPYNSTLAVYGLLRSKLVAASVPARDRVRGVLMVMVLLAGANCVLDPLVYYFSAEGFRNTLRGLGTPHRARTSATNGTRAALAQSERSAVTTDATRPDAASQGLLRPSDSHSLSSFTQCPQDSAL

Compound | effect on fluorescence (β-galactosidase reporter) (OSGPR114 [1]) | effect on fluorescence (β-galactosidase reporter) (OSGPR78) | response in vector transformed yeast cells [2] | effect of co-addition on LPA calcium response (OSGPR114 [3]) | response in yeast G-alpha chimera strains (OSGPR114 [1]; chimeras of Galpha q (20156) and Galphas (20202)) | response in vector transformed yeast cells ([2]; listed as oleoyl LPA) | Emax, GTPγS binding (OSGPR114 [4]) | EC50 (endogenous CHO receptor) [nM]
Nc1ncnc2c1ncn2[C@@H]1O[C@H](COP(=O)(O)OP(=O)(O)O)[C@@H](O)[C@H]1O [ADP] | no effect | no effect | – | – | – | – | – | –
CCCCCCCCCCCCCC(=O)OC[C@@H](O)COP(=O)(O)O [myristoyl LPA, myristoyl lysophosphatidic acid] | increase in fluorescence | increase in fluorescence | not in vector transformed cells | – | – | – | – | –
pertussis toxin | – | – | – | completely abolished this effect | – | – | – | –
Nc1ncnc2c1ncn2[C@@H]1O[C@H](COP(=O)(O)OP(=O)(O)OP(=O)(O)O)[C@@H](O)[C@H]1O [ATP] | no effect | no effect | – | – | – | – | – | –
platelet-activating factor [PAF] | no effect | no effect | – | – | – | – | – | –
CCCCCCCCCCCCCCCCCC(=O)OC[C@@H](O)COP(=O)(O)O [stearoyl LPA, stearoyl lysophosphatidic acid] | increase in fluorescence | increase in fluorescence | not in vector transformed cells | – | – | – | – | –
CCCCCCCCC=CCCCCCCCC(=O)OCC(O)COP(=O)(O)O (centres unmarked) [Oleoyl LPA, oleoyl lysophosphatidic acid] | increase in fluorescence | increase in fluorescence | not in vector transformed cells | – | could produce a response | did not respond | comparable Emax values | 768
CCCCCCCCCCCCCCCC(=O)OC[C@@H](O)COP(=O)(O)O [palmitoyl LPA, palmitoyl lysophosphatidic acid] | increase in fluorescence | increase in fluorescence | not in vector transformed cells | – | – | – | – | –

From patent US7879566B2, “Methods for the identification of modulators of OSGPR114 or OSGPR78 activity, and their use in the treatment of disease” (OSI Pharmaceuticals, Inc., priority 2003, dated 2011)
